The experiment relates to T1, LipSm.
T1 construct: mature form (371 residues, signal peptide cleaved in E. coli BL21(DE3) after LAA), C-terminal 8 extra residues incl; ORF 400 residues
The experiment in a line: initial velocities, 4-nitrophenol release at […] nm. In kind it is biochemical, Stenotrophomonas maltophilia. To be noted: 100 mM Tris-HCl pH 8.0, 1% w/v Triton X-100, 5% v/v DMSO, 40 °C.

By Km is commonly meant the substrate concentration at which the rate is half of its maximum. Turning to `CCCC(=O)Oc1ccc([N+](=O)[O-])cc1` [Bu-4-NPh, 4-nitrophenyl butyrate], for the setting “850 nM enzyme, limited substrate solubility”, the Km is 1930 µM.

For the molecule `CCCCCCCCCCCC(=O)Oc1ccc([N+](=O)[O-])cc1` [La-4-NPh, 4-nitrophenyl laurate], the Michaelis constant (Km) (2200 nM enzyme, limited substrate solubility) came to 349 µM.

On to `CC(=O)Oc1ccc([N+](=O)[O-])cc1` [Ac-4-NPh, 4-nitrophenyl acetate], for which the Km (850 nM enzyme) is 473 µM.
